Measured values as given in PMC5572576 (The Lancet. Oncology, 2017).
Read-outs that look alike come from different tables or passages of the source. Marks after values point to notes of the source that are not given here.

Tested on: patients with R/R AML
[1] = 120 mg, possibly related to treatment

SMILES: CCc1nc(C(N)=O)c(Nc2ccc(N3CCC(N4CCN(C)CC4)CC3)c(OC)c2)nc1NC1CCOCC1 [gilteritinib]
- Deaths, primary cause AML (20 mg): 3 n
- Deaths, primary cause Intracranial hemorrhage (20 mg, one death considered possibly related to treatment): 2 ^c n
- Deaths, primary cause AML (40 mg): 5 n
- Deaths, primary cause Multi-organ failure (40 mg): 1 n
- Deaths, primary cause AML (80 mg): 5 n
- Deaths, primary cause Bacteremia/staphylococcal bacteremia (80 mg): 2 n
- Deaths, primary cause Diabetic ketoacidosis (80 mg): 1 n
- Deaths, primary cause Respiratory failure (80 mg): 1 n
- Treatment-related Grade ≥3 elevated AST (80 mg/d): 1 n
- Treatment-related Grade ≥3 elevated alanine aminotransferase (80 mg/d): 1 n
- Deaths, primary cause Septic shock (80 mg, one death considered possibly related to treatment): 2 ^c n
- Deaths, primary cause Hemoptysis (80 mg, possibly related to treatment): 1 ^b n
- Deaths, primary cause AML (120 mg): 10 n
- Deaths, primary cause Colitis/neutropenic colitis (120 mg): 1 n
- Deaths, primary cause Death NOS (120 mg): 2 n
- Deaths, primary cause Hepatic infection (120 mg): 1 n
- Deaths, primary cause Multi-organ failure (120 mg): 1 n
- Deaths, primary cause Pneumonia (120 mg): 2 n
- Deaths, primary cause Respiratory failure (120 mg): 1 n
- Deaths, primary cause Sepsis/staphylococcal sepsis (120 mg): 1 n
- Treatment-related Grade ≥3 diarrhea (120 mg/d): 1 n
- Treatment-related Grade ≥3 elevated alanine aminotransferase (120 mg/d): 1 n
- Deaths, primary cause Neutropenia [1]: 1 ^b n
- Deaths, primary cause Ventricular fibrillation [1]: 1 ^b n
- Deaths, primary cause AML (200 mg): 13 n
- Deaths, primary cause Anemia (200 mg): 1 n
- Deaths, primary cause Bronchopulmonary aspergillosis (200 mg): 1 n
- Deaths, primary cause Cardiac arrest (200 mg): 1 n
- Deaths, primary cause Cellulitis (200 mg): 1 n
- Deaths, primary cause Cerebrovascular ischemia (200 mg): 1 n
- Deaths, primary cause Colitis/neutropenic colitis (200 mg): 1 n
- Deaths, primary cause Death NOS (200 mg): 1 n
- Deaths, primary cause Febrile neutropenia (200 mg): 1 n
- Deaths, primary cause Hypoxia (200 mg): 1 n
- Deaths, primary cause Intracranial hemorrhage (200 mg): 1 n
- Deaths, primary cause Loss of consciousness (200 mg): 1 n
- Deaths, primary cause Lung infection (200 mg): 1 n
- Deaths, primary cause Multi-organ failure (200 mg): 5 n
- Deaths, primary cause Pneumonia (200 mg): 2 n
- Deaths, primary cause Renal failure (200 mg): 1 n
- Deaths, primary cause Respiratory failure (200 mg): 5 n
- Deaths, primary cause Sepsis/staphylococcal sepsis (200 mg): 8 n
- Deaths, primary cause Septic shock (200 mg): 2 n
- Deaths, primary cause Sudden death (200 mg): 1 n
- Deaths, primary cause Ventricular tachycardia (200 mg): 1 n
- Treatment-related Grade ≥3 diarrhea (200 mg/d): 2 n
- Treatment-related Grade ≥3 elevated AST (200 mg/d): 3 n
- Treatment-related Grade ≥3 elevated alanine aminotransferase (200 mg/d): 4 n
- Deaths, primary cause Pulmonary embolism (200 mg, possibly related to treatment): 1 ^b n
- Deaths, primary cause AML (300 mg): 5 n
- Deaths, primary cause Renal failure (300 mg): 1 n
- Deaths, primary cause Respiratory failure (300 mg): 1 n
- Treatment-related Grade ≥3 elevated AST (300 mg/d): 1 n
- Deaths, primary cause Cardiac arrest (450 mg): 1 n
- Urinary tract infection, Grade 3 (Table 2): 12 (5%) n (%)
- Probability of experiencing a DLT (doses up to 200mg): < 20%
- AE associated with dose reductions: diarrhea (human, in vivo): 1%
- AE associated with dose reductions: fatigue (human, in vivo): 1%
- AE that led to study discontinuation: progressive disease (human, in vivo): 6%
- AE that led to study discontinuation: sepsis (human, in vivo): 3%
- Acute renal failure, Grade 1 (human, in vivo): 7 (3%) n (%)
- Acute renal failure, Grade 2 (human, in vivo): 9 (4%) n (%)
- Acute renal failure, Grade 3 (human, in vivo): 8 (3%) n (%)
- Acute renal failure, Grade 4 (human, in vivo): 1 (0·4%) n (%)
- Anemia, Grade 1 (human, in vivo): 1 (0·4%) n (%)
- Anemia, Grade 2 (human, in vivo): 23 (9%) n (%)
- Anemia, Grade 3 (human, in vivo): 55 (22%) n (%)
- Anemia, Grade 4 (human, in vivo): 6 (2%) n (%)
- Anemia, Grade 5 (human, in vivo): 1 (0·4%) n (%)
- Arthralgia, Grade 1 (human, in vivo): 19 (8%) n (%)
- Arthralgia, Grade 2 (human, in vivo): 8 (3%) n (%)
- Asthenia, Grade 1 (human, in vivo): 14 (6%) n (%)
- Asthenia, Grade 2 (human, in vivo): 10 (4%) n (%)
- Asthenia, Grade 3 (human, in vivo): 6 (2%) n (%)
- Atrial fibrillation, Grade 3 (human, in vivo): 5 (2%) n (%)
- Back pain, Grade 3 (human, in vivo): 5 (2%) n (%)
- Bacteremia, Grade 3 (human, in vivo): 13 (5%) n (%)
- Bacteremia, Grade 4 (human, in vivo): 3 (1·2%) n (%)
- Bacteremia, Grade 5 (human, in vivo): 1 (0·4%) n (%)
- Cellulitis, Grade 3 (human, in vivo): 7 (3%) n (%)
- Cellulitis, Grade 5 (human, in vivo): 1 (0·4%) n (%)
- Clostridium difficile colitis, Grade 3 (human, in vivo): 5 (2%) n (%)
- Constipation, Grade 1 (human, in vivo): 40 (16%) n (%)
- Constipation, Grade 2 (human, in vivo): 17 (7%) n (%)
- Cough, Grade 1 (human, in vivo): 40 (16%) n (%)
- Cough, Grade 2 (human, in vivo): 14 (6%) n (%)
- Decreased appetite, Grade 1 (human, in vivo): 12 (5%) n (%)
- Decreased appetite, Grade 2 (human, in vivo): 18 (7%) n (%)
- Decreased neutrophil count, Grade 2 (human, in vivo): 5 (2%) n (%)
- Decreased neutrophil count, Grade 3 (human, in vivo): 7 (3%) n (%)
- Decreased neutrophil count, Grade 4 (human, in vivo): 14 (6%) n (%)
- Decreased platelet count, Grade 1 (human, in vivo): 1 (0·4%) n (%)
- Decreased platelet count, Grade 2 (human, in vivo): 3 (1·2%) n (%)
- Decreased platelet count, Grade 3 (human, in vivo): 7 (3%) n (%)
- Decreased platelet count, Grade 4 (human, in vivo): 30 (12%) n (%)
- Decreased white blood cell count, Grade 3 (human, in vivo): 6 (2%) n (%)
- Decreased white blood cell count, Grade 4 (human, in vivo): 9 (4%) n (%)
- Diarrhea, Grade 1 (human, in vivo): 47 (19%) n (%)
- Diarrhea, Grade 2 (human, in vivo): 32 (13%) n (%)
- Diarrhea, Grade 3 (human, in vivo): 13 (5%) n (%)
- Dizziness, Grade 1 (human, in vivo): 36 (14%) n (%)
- Dizziness, Grade 2 (human, in vivo): 11 (4%) n (%)
- Drug-related TEAEs leading to discontinuation (human, in vivo): 10%
- Dysgeusia, Grade 1 (human, in vivo): 23 (9%) n (%)
- Dysgeusia, Grade 2 (human, in vivo): 4 (1·6%) n (%)
- Dyspnea, Grade 1 (human, in vivo): 29 (12%) n (%)
- Dyspnea, Grade 2 (human, in vivo): 18 (7%) n (%)
- Dyspnea, Grade 3 (human, in vivo): 11 (4%) n (%)
- Dyspnea, Grade 4 (human, in vivo): 1 (0.4%) n (%)
- Edema peripheral, Grade 1 (human, in vivo): 43 (17%) n (%)
- Edema peripheral, Grade 2 (human, in vivo): 21 (8%) n (%)
- Edema peripheral, Grade 3 (human, in vivo): 3 (1.2%) n (%)
- Elevated ALT, Grade 1 (human, in vivo): 25 (10%) n (%)
- Elevated ALT, Grade 2 (human, in vivo): 9 (4%) n (%)
- Elevated ALT, Grade 3 (human, in vivo): 13 (5%) n (%)
- Elevated AST, Grade 1 (human, in vivo): 33 (13%) n (%)
- Elevated AST, Grade 2 (human, in vivo): 18 (7%) n (%)
- Elevated AST, Grade 3 (human, in vivo): 14 (6%) n (%)
- Elevated AST, Grade 4 (human, in vivo): 1 (0·4%) n (%)
- Elevated blood alkaline phosphatase, Grade 1 (human, in vivo): 28 (11%) n (%)
- Elevated blood alkaline phosphatase, Grade 2 (human, in vivo): 5 (2%) n (%)
- Elevated blood bilirubin, Grade 3 (human, in vivo): 6 (2%) n (%)
- Elevated blood bilirubin, Grade 4 (human, in vivo): 1 (0·4%) n (%)
- Elevated blood creatinine, Grade 1 (human, in vivo): 23 (9%) n (%)
- Elevated blood creatinine, Grade 2 (human, in vivo): 12 (5%) n (%)
- Elevated blood phosphocreatine kinase, Grade 1 (human, in vivo): 7 (3%) n (%)
- Elevated blood phosphocreatine kinase, Grade 2 (human, in vivo): 7 (3%) n (%)
- Elevated blood phosphocreatine kinase, Grade 3 (human, in vivo): 7 (3%) n (%)
